# “Also recorded” adds a separate entry of the source.
# Target: T1, HDAC8 (Homo sapiens, UniProt Q9BY41)
# T1 sequence (Q9BY41 1-377): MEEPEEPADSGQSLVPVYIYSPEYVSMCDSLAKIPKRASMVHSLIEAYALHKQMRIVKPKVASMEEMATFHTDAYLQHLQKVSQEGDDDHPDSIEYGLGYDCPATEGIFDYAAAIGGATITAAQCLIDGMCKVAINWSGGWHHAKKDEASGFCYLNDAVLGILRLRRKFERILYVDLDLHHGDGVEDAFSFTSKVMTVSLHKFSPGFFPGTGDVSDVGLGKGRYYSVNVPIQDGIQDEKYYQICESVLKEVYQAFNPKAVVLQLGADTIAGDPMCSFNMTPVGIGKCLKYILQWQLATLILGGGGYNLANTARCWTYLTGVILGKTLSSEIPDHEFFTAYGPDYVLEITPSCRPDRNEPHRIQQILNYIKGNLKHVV
# Test: Change in cellular protein abundance (TMT proteomics) in Kelly cells
# Assay type: cell-based
# Parameters: relative change in relative protein abundance with treatment of Kelly cells; endogenous in cells; host or cells: Kelly cells
# Details: FIG. 3A
structure (smiles),measurement,value
"Cc1ncsc1-c1ccc(CNC(=O)[C@@H]2C[C@@H](O)CN2C(=O)[C@@H](NC(=O)C2(F)CC2)C(C)(C)C)c(OCCCCCN(CCc2c[nH]c3ccccc23)Cc2ccc(/C=C/C(=O)NO)cc2)c1 [Compound 7, (2S,4R)—N-(2-((5-((2-(1H-indol-3-yl)ethyl)(4-((E)-3-(hydroxyamino)-3-oxoprop-1-en-1-yl)benzyl)amino)pentyl)oxy)-4-(4-methylthiazol-5-yl)benzyl)-1-((S)-2-(1-fluorocyclopropane-1-carboxamido)-3,3-dimethylbutanoyl)-4-hydroxypyrrolidine-2-carboxamide]","HDAC8 protein levels, relative protein abundance compared to DMSO control",promote degradation; also recorded: significant and selective reduction

# Reference: patent US20220401564A1 (DANA-FARBER CANCER INSTITUTE, INC., priority 2019, published 2022)
